Here are results for 16 compounds from patent publication US20230192686A1, “1H-PYRROLO[2,3-B]PYRIDINES AND PREPARATION AND USES THEREOF” (BioSplice Therapeutics, Inc., priority 2021, published 2023).

For the test, the target named is recombinant DYRK1A kinase (Homo sapiens, UniProt Q13627). The test can be described thus: DYRK1A kinase assay (Ser/Thr 18 peptide Z-lyte FRET). It counts as biochemical. The following applies: DYRK1A kinase activity; 15 μM ATP, 4 μM Ser/Thr peptide 18, one hour at room temperature. The method, then:
Representative compounds were screened using the assay procedure for DYRK1A kinase activity as described below.
Each compound was dissolved in DMSO as a 10 mM stock and used to prepare compound source plates. Serial dilution (1:3, 11-point dose-response curves from 10 μM to 0.00016 μM) and compound transfer was performed using the ECHO 550 (Labcyte, Sunnyvale, Calif.) into 1536-well black-walled round bottom plates (Corning).
The DYRK1A kinase assay was run using the Ser/Thr 18 peptide Z-lyte assay kit according to manufacturer's instructions (Life Technologies—a Division of Thermo-Fisher). This is a non-radioactive assay using fluorescence resonance energy transfer (FRET) between coumarin and fluorescein to detect kinase activity which is represented as a ratio of coumarin emission/fluorescein emission.
Briefly, recombinant DYRK1A kinase, ATP and Ser/Thr peptide 18 were prepared in 1× Kinase buffer to final concentrations of 0.25 μg/mL, 15 μM, and 4 μM respectively. The mixture was allowed to incubate with the representative compounds for one hour at room temperature. All reactions were performed in duplicate. Unphosphorylated (“0% Control”) and phosphorylated (“100% control”) forms of Ser/Thr 18 served as control reactions. Additionally, an 11-point dose-response curve of Staurosporine (1 uM top) was run to serve as a positive compound control.
After incubation, Development Reagent A was diluted in Development Buffer then added to the reaction and allowed to further incubate for one hour at room temperature. The plate was read at Ex 400 Em 455 to detect the coumarin signal and Ex 400 Em 520 to measure the signal (EnVision Multilabel Plate Reader, PerkinElmer).
The Emission ratio (Em) was calculated as a ratio of the coumarin (C) emission signal (at 445 nm)/Fluorescein (F) emission signal (at 520 nm). The percent phosphorylation was then calculated using the following formula: [1−((Em ratio×F100%)−C100%)/((C0%−C100%)+(Em ratio×(F100%−F0%)))]. Dose-response curves were generated, and inhibitory concentration (IC50) values were calculated using non-linear regression curve fit in the Dotmatics' Studies Software (Bishops Stortford, UK).
With `c1cnc2[nH]cc(-c3ccc4nc5n(c4n3)CCC5)c2c1` [Compound 28, 2-(1H-Pyrrolo[2,3-b]pyridin-3-yl)-7,8-dihydro-6H-pyrrolo [2′,1′:2,3]imidazo[4,5-b]pyridine], the EC50 (usually the concentration needed to bring the measured effect to its halfway point) stood at 19 nM.

On to `c1cnc2[nH]cc(-c3ccc4ncnn4c3)c2c1` [Compound 29, 6-(1H-Pyrrolo[2,3-b]pyridin-3-yl)-[1,2,4]triazolo[1,5-a]pyridine], for which the 50% effective concentration (EC50) amounted to 10 nM.

As to `c1cnc2[nH]cc(-c3ccn4ncnc4c3)c2c1` [Compound 30, 7-(1H-Pyrrolo[2,3-b]pyridin-3-yl)-[1,2,4]triazolo[1,5-a]pyridine], the EC50 turned out to be 13 nM.

As to `Cn1nnc2ccc(-c3c[nH]c4ncccc34)cc21` [Compound 31, 1-Methyl-6-(1H-pyrrolo[2,3-b]pyridin-3-yl)-1H-benzo[d][1,2,3]triazole], the 50% effective concentration (EC50) was 4 nM.

Consider `Cc1nnc2ccc(-c3c[nH]c4ncccc34)cn12` [Compound 32, 3-Methyl-6-(1H-pyrrolo[2,3-b]pyridin-3-yl)-[1,2,4]triazolo[4,3-a] pyridine], for which the EC50 is 151 nM.

As to `Cc1cnc2ccc(-c3c[nH]c4ncccc34)nn12` [Compound 34, 3-Methyl-6-(1H-pyrrolo[2,3-b]pyridin-3-yl)imidazo[1,2-b]pyridazine], the EC50 amounted to 2 nM.

With `OCc1cnc2ccc(-c3c[nH]c4ncccc34)nn12` [Compound 35, (6-(1H-Pyrrolo[2,3-b]pyridin-3-yl)imidazo[1,2-b]pyridazin-3-yl) methanol], the EC50 came out at 2 nM.

For `c1cnc2[nH]cc(-c3ccn4nccc4c3)c2c1` [Compound 36, 3-(Pyrazolo[1,5-a]pyridin-5-yl)-1H-pyrrolo[2,3-b]pyridine], the EC50 was determined as 2 nM.

On to `c1cncc(-c2cnn3ccc(-c4c[nH]c5ncccc45)cc23)c1` [Compound 38, 3-(3-(Pyridin-3-yl)pyrazolo[1,5-a]pyridin-5-yl)-1H-pyrrolo[2,3-b] pyridine], for which the concentration for a half-maximal effect (EC50) stood at 2 nM.

For `O=C(NCC1(F)CNC1)c1cnn2ccc(-c3c[nH]c4ncccc34)cc12` [Compound 41, N-((3-Fluoroazetidin-3-yl)methyl)-5-(1H-pyrrolo[2,3-b]pyridin-3-yl) pyrazolo[1,5-a]pyridine-3-carboxamide], the EC50 is 2 nM.

As for `CN1CC(F)(CNC(=O)c2cnn3ccc(-c4c[nH]c5ncccc45)cc23)C1` [Compound 42, N-((3-Fluoro-1-methylazetidin-3-yl)methyl)-5-(1H-pyrrolo[2,3-b]pyridin-3-yl)pyrazolo[1,5-a]pyridine-3-carboxamide], the EC50 stood at 2 nM.

With `O=C(N[C@@H]1CCNC[C@H]1F)c1cnn2ccc(-c3c[nH]c4ncccc34)cc12` [Compound 43, N-((3R,4R)-3-Fluoropiperidin-4-yl)-5-(1H-pyrrolo[2,3-b]pyridin-3-yl) pyrazolo[1,5-a]pyridine-3-carboxamide], the concentration for a half-maximal effect (EC50) came to 1 nM.

Regarding `CN1CC[C@@H](NC(=O)c2cnn3ccc(-c4c[nH]c5ncccc45)cc23)[C@H](F)C1` [Compound 44, N-((3R,4R)-3-Fluoro-1-methylpiperidin-4-yl)-5-(1H-pyrrolo[2,3-b]pyridin-3-yl)pyrazolo[1,5-a]pyridine-3-carboxamide], the EC50 turned out to be 1 nM.

Regarding `CN1CCC(NC(=O)c2cnn3ccc(-c4c[nH]c5ncccc45)cc23)CC1` [Compound 45, N-(1-Methylpiperidin-4-yl)-5-(1H-pyrrolo[2,3-b]pyridin-3-yl) pyrazolo[1,5-a]pyridine-3-carboxamide], the EC50 is 1 nM.

Take `CN1CCC(N(C)C(=O)c2cnn3ccc(-c4c[nH]c5ncccc45)cc23)CC1` [Compound 46, N-Methyl-N-(1-methylpiperidin-4-yl)-5-(1H-pyrrolo[2,3-b]pyridin-3-yl)pyrazolo[1,5-a]pyridine-3-carboxamide]: the EC50 was 5 nM.

With `O=C(NC1CCN(C2CC2)CC1)c1cnn2ccc(-c3c[nH]c4ncccc34)cc12` [Compound 47, N-(1-Cyclopropylpiperidin-4-yl)-5-(1H-pyrrolo[2,3-b]pyridin-3-yl) pyrazolo[1,5-a]pyridine-3-carboxamide], the EC50 is 2 nM.
